IC50 data for one compound are collected here from patent US20260042764A1, “COMPOSITIONS AND METHODS FOR INHIBITION OF KRAS” (TheRas, Inc., priority 2022, published 2026).

Molecules are shown by their SMILES.

In assay [1] the target is T1, Avi-KRAS G12D (1-169) GppNHp/RAF1 RBD-3xFLAG (52-151) (Homo sapiens, UniProt P01116, G12D).
T1 construct: Avi-KRAS G12D (1-169)
Description: Raf1-KRAS G12D-GppNHP disruption HTRF assay (Biological Example 1). The format is binding. The following applies: KRAS G12D, GppNHp-loaded; Table 11. A digest of the protocol: (§1)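 Percent activity versus DMSO (100%) was derived from HTRF signal after KRAS–RAF1 RBD protein mix was incubated 1 h at room temperature with shaking and detection reagents were added for a further 1 h.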
For orientation: In TR-FRET formats the signal depends on donor and acceptor labels being close together.

The target of assay [2] is T2, Avi-KRAS G12R (1-169) GppNHp/RAF1 RBD-3xFLAG (52-151) (Homo sapiens, UniProt P01116, G12R).
T2 construct: Avi-KRAS G12R (1-169)
Description: Raf1-KRAS G12R-GppNHP disruption HTRF assay (Biological Example 1). Type of assay: binding. The following applies: KRAS G12R, GppNHp-loaded; Table 11. The essentials: as §1

The target in assay [3] is T3, Avi-KRAS G12V (1-169) GppNHp/RAF1 RBD-3xFLAG (52-151) (Homo sapiens, UniProt P01116, G12V).
T3 construct: Avi-KRAS G12V (1-169)
Kind of assay: Raf1-KRAS G12V-GppNHP disruption HTRF assay (Biological Example 1). The following applies: KRAS G12V, GppNHp-loaded; Table 11. The format is binding. A digest of the protocol: as §1

Assay [4] has as its target T4, Avi-KRAS WT (1-169) GppNHp/RAF1 RBD-3xFLAG (52-151) (Homo sapiens, UniProt P01116).
T4 construct: Avi-KRAS WT (1-169)
Kind of assay: Raf1-KRAS WT-GppNHP disruption HTRF assay (Biological Example 1). Type of assay: binding. The following applies: KRAS WT, GppNHp-loaded; Table 11. The essentials: as §1

Assay [5] deals with GP2d cells (KRAS G12D). Kind of assay: Cell-based pERK HTRF assay in GP2d cell (Biological Example 2). The following applies: GP2d, GP2d (KRAS G12D) cells, pERK HTRF. The essentials:
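GP2d (KRAS G12D) cells were plated in DMEM/10% FBS and treated the next day for 60 min with compounds. Dosing used 9-point half-log series starting at 1 μM or 100 nM in 0.25% DMSO. Lysates were read by HTRF pERK (d2/Eu cryptate antibodies) after 4–24 h at room temperature, with excitation at 320 nm and emission at 615 nm.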

In assay [6] the test system is SW1900 cells (KRAS G12D). Kind of assay: 3D Cell viability assay in SW1900 cells (Biological Example 6). The format is cell-based. The following applies: Homo sapiens; SW1990 (text: SW1900, KRAS G12D) spheroids, 72 hours. How it is done:
(§2) Biological Example 6: 3D Cell viability assay in AsPC-1, SW1900, HPAC, Capan-2, RKN, H358, HCT116, KP-2, H1573, A549, MKN1, and HT1080 cells
(§3) The inhibition of cellular viability as a result of test compound treatment in a spheroid assay was measured using the CellTiter-Glow 3D Cell Viability Assay (Promega).
(§4) On Day 1, 1000 cells per well were seeded in 150 μL of complete growth media supplemented with 10% fetal bovine serum (FBS) and incubated at 37° C., in the presence of 5% CO2 in 96-well ultra-low attachment microplates (Corning) for 48 hours undisturbed to allow spheroids to form.
(§5) Following spheroid formation, cells were treated with compounds diluted in DMSO at 0.25% final DMSO concentration. Compounds were dosed in a 9-point concentration curve with three-fold dilution between concentrations. Cells were incubated in the presence of compound for 72 hours at 37° C., in the presence of 5% CO2.
(§6) Following this incubation period, the kit-provided CTG reagent was allowed to equilibrate for 30 minutes at room temperature, 150 μL of equilibrated CTG reagent was added to each well, and the plate was sealed before shaking at 250 rpm for 10 minutes at room temperature to lyse the cells, 150 μL of lysate per well was transferred to a 96-well plate and luminescence was read on a CLARIOstar plate reader.
(§7) Data was imported into the Prism software package (Graphpad) and EC50 values were calculated using the log (inhibitor) vs, response—variable slope (Four parameters) model.

The subject of assay [7] is HPAC cells (KRAS G12D). Kind of assay: 3D Cell viability assay in HPAC cells (Biological Example 6). Type of assay: cell-based. The following applies: Homo sapiens, HPAC, 72 h, HPAC (KRAS G12D) spheroids. How it is done: as §2, §3, §4, §5, §6, §7
Assay [8] concerns H358 cells (KRAS G12C). Description: 3D Cell viability assay in H358 cells (Biological Example 6). Type of assay: cell-based. The following applies: Homo sapiens, NCI-H358; H358 (KRAS G12C) spheroids, 72 hours. On the procedure: as §2, §3, §4, §5, §6, §7
In assay [9] the test system is HCT116 cells (KRAS G13D). Kind of assay: 3D Cell viability assay in HCT116 cells (Biological Example 6). The format is cell-based. The following applies: Homo sapiens, HCT-116; HCT116 (KRAS G13D) spheroids, 72 hours. How it is done:
as §2, §3, §4, §5, §6, §7

Assay [10] deals with H1573 cells (KRAS G12A). Kind of assay: 3D Cell viability assay in H1573 cells (Biological Example 6). Type of assay: cell-based. The following applies: Homo sapiens, NCI-H1573; H1573 (KRAS G12A) spheroids, 72 hours. How it is done:
as §2, §3, §4, §5, §6, §7

The subject of assay [11] is A549 cells (KRAS G12S). Description: 3D Cell viability assay in A549 cells (Biological Example 6). The format is cell-based. The following applies: Homo sapiens; A549 (KRAS G12S) spheroids, 72 hours. How it is done:
as §2, §3, §4, §5, §6, §7

For assay [12], the system named is HT1080 cells (NRAS). Description: 3D Cell viability assay in HT1080 cells (Biological Example 6). Type of assay: cell-based. The following applies: Homo sapiens, HT-1080; HT1080 (NRAS) spheroids, 72 hours. On the procedure: as §2, §3, §4, §5, §6, §7

T3 sequence (P01116 1-169 isoform P01116-2 G12V): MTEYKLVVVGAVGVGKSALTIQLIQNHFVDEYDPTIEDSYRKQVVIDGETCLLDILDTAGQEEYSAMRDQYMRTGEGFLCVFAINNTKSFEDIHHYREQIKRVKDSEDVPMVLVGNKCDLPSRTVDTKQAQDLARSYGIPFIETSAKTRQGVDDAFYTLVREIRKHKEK
T4 sequence (P01116 1-169 isoform P01116-2): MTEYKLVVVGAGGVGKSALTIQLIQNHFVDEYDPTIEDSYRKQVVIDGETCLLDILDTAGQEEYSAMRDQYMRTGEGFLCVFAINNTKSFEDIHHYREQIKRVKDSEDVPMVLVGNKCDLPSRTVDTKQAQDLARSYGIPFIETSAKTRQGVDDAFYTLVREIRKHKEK
T1 sequence (P01116 1-169 isoform P01116-2 G12D): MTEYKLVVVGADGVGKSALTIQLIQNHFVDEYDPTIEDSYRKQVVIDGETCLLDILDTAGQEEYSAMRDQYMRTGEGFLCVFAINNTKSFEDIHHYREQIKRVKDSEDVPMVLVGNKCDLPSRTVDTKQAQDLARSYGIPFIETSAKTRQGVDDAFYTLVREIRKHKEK
T2 sequence (P01116 1-169 isoform P01116-2 G12R): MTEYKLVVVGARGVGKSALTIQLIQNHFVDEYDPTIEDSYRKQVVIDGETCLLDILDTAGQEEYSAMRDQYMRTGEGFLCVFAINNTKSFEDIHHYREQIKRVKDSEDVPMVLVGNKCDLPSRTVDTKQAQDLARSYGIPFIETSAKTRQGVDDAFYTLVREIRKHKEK

Regarding `CN(C)c1nc(OC[C@@]23CCCN2C[C@H](F)C3)nc2c(F)c(-c3ccc(F)c4sc(N)c(C#N)c34)c(C(F)(F)F)cc12` [Compound 153], the 50% inhibitory concentration (IC50) (commonly the midpoint of a concentration-inhibition curve) in assay [1] is less than 100 nM; in [2], 100 to 1000 nM; in assay [3], 100 to 1000 nM; in assay [4] it was 100 to 1000 nM; in [5], less than 100 nM; in [6], 100 to 1000 nM. The half-inhibitory concentration (IC50) in assay [7] was 100 to 1000 nM; in [8] it was not above 100 nM; in assay [9] it was 100 to 1000 nM; in assay [10], 100 to 1000 nM; in assay [11], not above 100 nM; in assay [12] it was more than 1000 nM.
